Experimental data taken from US10295530B2, “Functional assay for cancer recurrence and malignant potential” (THE BRIGHAM AND WOMEN'S HOSPITAL, INC., priority 2012, dated 2019).

Legend:
HMLER-HR responder cells = HMLER-HR responder cells in depleted medium (D.M.) plus EGF and/or insulin, 4 days: flow cytometry and qPCR; type: cell-based, human; settings: for CD44 expression / CD44/CD24 expression patterns (flow cytometry) / Oct4 expression (qPCR) / Zeb1 expression (qPCR) / c-Myc expression (qPCR): added to cells kept in D.M. for 4 days, relative to C.M.
Source text: FIG. 23D. Flow cytometric density plots representing CD44/CD24 profiles of responding tumor cells after 4 days in depleted medium, D.M. (medium devoid of EGF and insulin), or D.M.+indicated supplements. Graph represents average responding tumor cell CD441CD24 profiles under indicated conditions relative to that of C.M (samples run in triplicate).
FIG. 23E. Expression levels of indicated malignancy profile genes in responder tumor cells after 4 days in indicated culture conditions relative to those maintained in C.M. Data represent average of three independent experiments, where each sample was run in triplicate.
FIG. 26E. Expression levels of c-myc in HMLER-HR responding tumor cells after 4 days in response to indicated doses of EGF. Data are represented relative to cells that had been maintained in depleted medium (D.M.; medium devoid of EGF and insulin). Data are expressed as mean±SEM; samples tested in triplicate.
HMLER-HR cells were maintained in DMEM-F12 (1:1) medium, supplemented with 5% calf serum, 10 ng/ml human recombinant EGF (Sigma E9644), 10 μg/ml insulin (Sigma 19278), 1 μg/ml hydrocortisone (Sigma 110888) and 1% penicillin-streptomycin. BPLER cells were maintained in WIT Medium (STEMGENT), and MCF7-Ras cells in DMEM media (Thermo Scientific) supplemented with 10% heat inactivated FBS (GIBCO), and 1% penicillin-streptomycin. BT549 cells were maintained in RPMI medium supplemented with 10% FBS.
RNA was extracted from cells or snap-frozen tissues using Trizol reagent following manufacturer's instructions (INVITROGEN). RNA was retrotranscribed with ProtoScript AMV First Strand cDNA Synthesis Kit (New England BioLabs). PCR amplification was performed on a ABI Prism 7900 sequence detector using SYBR-Green (Applied Biosystems). Analysis was done using delta-delta Ct method, normalizing first to GAPDH.
Whether EGFR and IGF1R signaling were necessary and/or sufficient for modulating responding tumor malignancy remained to be investigated. To do so, the effects of either depleting EGF and/or insulin from HMLER-HR responder cells that had been cultured in complete medium (C.M.) or adding EGF and/or insulin to cells that had been cultured in depleted medium (D.M., medium depleted of both EGF and insulin) were examined. For these studies, cells were treated under various conditions for 4 days, then assessed differentiation status by flow cytometry, expression of malignancy factors (e.g. Oct-4, Zeb1, c-myc) by qPCR, and tumor-forming capacity by soft agar colony formation.

[1] = system: responding tumors (HMLER-HR) opposite instigating LBC; test: Aspirin treatment in LBC-mediated systemic instigation: responding tumors; type: in vivo, mice; settings: aspirin 100 mg/kg i.p. once per week
Method: (§1) FIG. 35A. Experimental scheme to test effects of aspirin on LBC-mediated systemic instigation. All mice were injected with responders and LBC instigating tumors and treated with either 100 mg/kg aspirin or vehicle control; n=10 (5 mice per cohort for 2 independent experiments).
All experiments were performed in accordance with regulations of the Children's Hospital Boston Institutional Animal Care and Use Committee (protocol 09-12-1566). Unless otherwise indicated, tumor cells were suspended in 20% […] (BD Biosciences) and injected subcutaneously into nonirradiated mice. Tumors were measured on the flanks of live mice using calipers; volume was calculated as 0.5*length*(width^2).
(§2) 450 mg Aspirin (Sigma, A2093-100G) was dissolved in 11 ml DMSO to make a 41 mg/ml concentrated stock solution. 30 min before injection, 1.6 ml of stock solution was diluted in 11.6 ml of PBS to make a 5 mg/ml injection solution.
(§3) Vehicle control was made with 1.6 ml DMSO diluted in 11.6 ml PBS. Mice were injected i.p. with aspirin at 100 mg/kg, once per week. A similar volume:weight ratio of vehicle was administered to control animals.
(§4) In order to explore therapeutic potential and identify whether platelets were necessary for delivering the pro-tumorigenic instigating stimulus in the LBC macroenvironment, we treated mice with aspirin, which inhibits platelet activity (28). Mice were injected with LBC instigators that were permitted to grow for 4 weeks prior to initiation of weekly treatments of either aspirin or vehicle control; responders were then injected into these mice two days following the first aspirin treatment (FIG. 35A). While responding tumors formed in 90% of the mice treated with vehicle control, only 20% of the mice treated with aspirin developed responding tumors (FIG. 35B).

[2] = system: instigating LBC tumor / host platelets and bone marrow; test: Aspirin treatment in LBC-mediated systemic instigation: instigating LBC tumor, platelet counts, bone marrow VEGFR2+ cells; type: in vivo, mice; settings: aspirin 100 mg/kg i.p. once per week vs vehicle
Method: as §1
FIG. 35C. Numbers of VEGFR2+ cells in the bone marrow of experimental mice relative to those of cancer-free mice.
as §2, §3
as §4, with “While responding tumors formed in 90% of the mice treated with vehicle control, only 20% of the mice treated with aspirin developed responding tumors (FIG. 35B).” left out

GFP+ responder cells = test: Co-culture of GFP+ responder cells with BMCs from aspirin or vehicle treated mice, CD24 by flow cytometry; type: cell-based, human; settings: BMCs from aspirin treated LBC-bearing mice; same with vehicle
Method: FIG. 35D. Flow cytometric analysis of CD24 expression on GFP+ responder cells co-cultured with indicated BMCs.
BMCs were harvested and tested for functional activity as previously described (McAllister et al., 2008). In vitro instigation assays were conducted by co-culturing 1×10^4 GFP-positive responder tumor cells with 1×10^6 BMCs harvested from mice bearing […], TNBC or LBC Instigators. Co-cultured cells were maintained for 4 days in BMDC medium (DMEM, 5% FBS, 5% horse serum, 10^−6 M hydrocortisone), adding fresh medium on day 2.
In order to understand whether BMCs from LBC tumor bearing mice directly mediated tumor cell surface enrichment of CD24, adherent GFP-positive (GFP+) responding tumor cells were cultured with BMCs prepared from various cohorts of mice and analyzed tumor cell expression of CD24 after 4 days by flow cytometry.

[3] = patients treated with erlotinib (Numico et al., 2011); cited from earlier work

Molecule	CD44 expression / CD44/CD24 expression patterns (flow cytometry) (HMLER-HR responder cells)	Oct4 expression (qPCR) (HMLER-HR responder cells)	Zeb1 expression (qPCR) (HMLER-HR responder cells)	c-Myc expression (qPCR) (HMLER-HR responder cells)	other results
EGF: human recombinant EGF (Sigma E9644)	sufficient to restore	unaffected	restored	restored	c-myc upregulation in response to doses of EGF (HMLER-HR responder cells; HMLER-HR, 4 days, relative to D.M.): dose-dependent
insulin: insulin (Sigma 19278), medium supplement	not sufficient to restore	restored	remained significantly lower than the controls	remained significantly lower than the controls	
CC(=O)Oc1ccccc1C(=O)O [aspirin, Aspirin]					incorporation of VEGFR2-positive cells into responding tumor sites ([1]; LBC instigating environment): completely inhibited; p-STAT3 in responding tumor site tissues ([1]; LBC instigating environment): negative; mice that developed responding tumors (incidence) ([1]; LBC instigators, vehicle control 90%): 20%; instigating LBC tumor growth [2]: did not significantly affect; increase in tumor cell CD24 expression above control BMCs from tumor-free mice (GFP+ responder cells): ~90%
C#Cc1cccc(Nc2ncnc3cc(OCCOC)c(OCCOC)cc23)c1 [erlotinib]					adverse effect reported for patients [3]: skin rash
